Measurements from patent publication US8143290B2, “Chemical compounds 572” (AstraZeneca AB, priority 2006, dated 2012).

These compounds were tested against T1, recombinant human GR (Homo sapiens, UniProt P04150) (assay: Human Glucocorticoid Receptor (GR) Assay, fluorescence polarization). Settings: GS Red tracer, incubated 2 h at r.t., XLfit model 205, read-out: GRhuFL_FP_v2 Mean IC50.
T1 construct: purchased Panvera/Invitrogen P2812 (kit P2893)
T1 sequence (P04150 1-777): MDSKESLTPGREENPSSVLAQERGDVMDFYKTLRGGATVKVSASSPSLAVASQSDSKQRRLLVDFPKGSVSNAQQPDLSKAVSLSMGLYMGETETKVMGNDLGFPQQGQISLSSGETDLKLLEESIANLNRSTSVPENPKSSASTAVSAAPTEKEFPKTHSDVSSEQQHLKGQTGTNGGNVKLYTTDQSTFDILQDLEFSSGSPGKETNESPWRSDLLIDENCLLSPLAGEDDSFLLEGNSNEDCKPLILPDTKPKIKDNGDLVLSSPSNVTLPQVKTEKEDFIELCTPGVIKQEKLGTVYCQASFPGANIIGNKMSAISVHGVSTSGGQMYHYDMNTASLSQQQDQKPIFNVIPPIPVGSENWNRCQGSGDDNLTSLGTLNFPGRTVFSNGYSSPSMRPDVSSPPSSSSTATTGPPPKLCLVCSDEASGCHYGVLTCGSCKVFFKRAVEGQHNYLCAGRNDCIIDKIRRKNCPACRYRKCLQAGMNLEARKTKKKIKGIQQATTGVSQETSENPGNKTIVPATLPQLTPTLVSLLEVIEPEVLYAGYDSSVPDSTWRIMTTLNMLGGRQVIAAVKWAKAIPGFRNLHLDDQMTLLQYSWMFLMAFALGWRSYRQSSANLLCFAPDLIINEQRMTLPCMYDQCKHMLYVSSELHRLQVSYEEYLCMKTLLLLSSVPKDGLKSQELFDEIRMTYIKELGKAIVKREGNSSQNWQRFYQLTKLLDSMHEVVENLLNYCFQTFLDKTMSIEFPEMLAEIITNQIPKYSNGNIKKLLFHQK
Format: binding
Method in brief: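 Fluorescence polarization kit assay: recombinant GR and GS Red fluorescent ligand with Stabilizing Peptide and DTT in potassium phosphate/sodium molybdate/EDTA screening buffer. Plates incubated 2 h in the dark at r.t.; DMSO served as 0% and dexamethasone as 100% control.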
Cc1ccc([C@@H](Oc2ccc3c(cnn3-c3ccc(F)cc3)c2)[C@H](C)NC(=O)C(C)(C)F)cc1C [Example 240, N-[(1R,2S)-1-(3,4-dimethylphenyl)-1-[1-(4-fluorophenyl)indazol-5-yl]oxy-propan-2-yl]-2-fluoro-2-methyl-propanamide] was tested, and the IC50 was 5.9 nM. Compound Cc1ccc(C)c([C@@H](Oc2ccc3c(cnn3-c3ccc(F)cc3)c2)[C@H](C)NC(=O)C(C)(F)F)c1 [Example 266, N-[(1R,2S)-1-(2,5-dimethylphenyl)-1-[1-(4-fluorophenyl)indazol-5-yl]oxy-propan-2-yl]-2,2-difluoro-propanamide] has an IC50 of 2.9 nM. In the case of COc1cccc([C@@H](Oc2cc3cnn(-c4ccc(F)cc4)c3cc2C)[C@H](C)NC(=O)C(F)(F)F)c1 [Example 65, 2,2,2-Trifluoro-N-[(1R,2S)-1-[1-(4-fluorophenyl)-6-methyl-indazol-5-yl]oxy-1-(3-methoxyphenyl)propan-2-yl]acetamide], the IC50 is reported as 3.8 nM. Compound Cc1ccc([C@@H](Oc2ccc3c(cnn3-c3ccc(F)cc3)c2)[C@H](C)NC(=O)c2ncc(C)s2)c(C)c1 [Example 197, N-[(1R,2S)-1-(2,4-dimethylphenyl)-1-[1-(4-fluorophenyl)indazol-5-yl]oxy-propan-2-yl]-5-methyl-1,3-thiazole-2-carboxamide] has an IC50 of 4.9 nM. For C[C@H](NC(=O)CCl)[C@H](Oc1ccc2c(cnn2-c2ccc(F)cc2)c1)c1ccccc1 [Example 38, 2-Chloro-N-[(1R,2S)-1-[1-(4-fluorophenyl)indazol-5-yl]oxy-1-phenyl-propan-2-yl]acetamide], the IC50 was 2.4 nM. With COc1cccc([C@@H](Oc2ccc3c(cnn3-c3ccc(F)cc3)c2)[C@H](C)NC(=O)c2ncc(C)s2)c1 [Example 274, N-[(1R,2S)-1-[1-(4-fluorophenyl)indazol-5-yl]oxy-1-(3-methoxyphenyl)propan-2-yl]-5-methyl-1,3-thiazole-2-carboxamide] the IC50 was 3.9 nM. With C[C@H](NC(=O)C(F)(F)F)[C@H](Oc1ccc2c(cnn2-c2ccc(F)cc2)c1)c1ccc2c(c1)OCO2 [Example 166, N-[(1R,2S)-1-benzo[1,3]dioxol-5-yl-1-[1-(4-fluorophenyl)indazol-5-yl]oxy-propan-2-yl]-2,2,2-trifluoro-acetamide] the IC50 was 6.9 nM. Cc1ccc(F)cc1[C@@H](Oc1ccc2c(cnn2-c2ccc(F)cc2)c1)[C@H](C)NC(=O)C(C)(F)F [Example 234, 2,2-difluoro-N-[(1R,2S)-1-(5-fluoro-2-methyl-phenyl)-1-[1-(4-fluorophenyl)indazol-5-yl]oxy-propan-2-yl]propanamide] gave an IC50 of 6.4 nM. Work on C[C@H](NC(=O)C(C)(F)F)[C@H](Oc1ccc2c(cnn2-c2ccc(F)cc2)c1)c1cccc(F)c1 [Example 230, 2,2-difluoro-N-[(1R,2S)-1-(3-fluorophenyl)-1-[1-(4-fluorophenyl)indazol-5-yl]oxy-propan-2-yl]propanamide] yielded an IC50 of 4.8 nM. With C[C@H](NC(=O)C(C)(C)C)[C@H](Oc1ccc2c(cnn2-c2ccc(F)cc2)c1)c1ccc(C(C)(C)C)cc1 [Example 186, N-[(1R,2S)-1-[1-(4-fluorophenyl)indazol-5-yl]oxy-1-(4-tert-butylphenyl)propan-2-yl]-2,2-dimethyl-propanamide] the IC50 was 6.6 nM. Compound Cc1cnc(C(=O)N[C@@H](C)[C@H](Oc2ccc3c(cnn3-c3ccc(F)cc3)c2)c2ccc(C)c(F)c2)s1 [Example 194, N-[(1R,2S)-1-(3-fluoro-4-methyl-phenyl)-1-[1-(4-fluorophenyl)indazol-5-yl]oxy-propan-2-yl]-5-methyl-1,3-thiazole-2-carboxamide] has an IC50 of 3.9 nM. C[C@H](NC(=O)C(F)(F)F)[C@@H](Cc1ccccc1)Oc1ccc2c(cnn2-c2ccc(F)cc2)c1 [Example 72, 2,2,2-Trifluoro-N-[(2S,3R)-3-[1-(4-fluorophenyl)indazol-5-yl]oxy-4-phenyl-butan-2-yl]acetamide] was tested, and the IC50 was 3.7 nM. Cc1cnc(C(=O)N[C@@H](C)[C@H](Oc2ccc3c(cnn3-c3ccc(F)cc3)c2)c2cc(F)cc(Cl)c2)s1 [Example 205, N-[(1R,2S)-1-(3-chloro-5-fluoro-phenyl)-1-[1-(4-fluorophenyl)indazol-5-yl]oxy-propan-2-yl]-5-methyl-1,3-thiazole-2-carboxamide] showed an IC50 of 6.6 nM. C[C@H](NC(=O)C(F)(F)F)[C@@H](COc1ccc(F)cc1F)Oc1ccc2c(cnn2-c2ccc(F)cc2)c1 [Example 305, N-((2S,3S)-4-(2,4-difluorophenoxy)-3-(1-(4-fluorophenyl)-1H-indazol-5-yloxy)butan-2-yl)-2,2,2-trifluoroacetamide] was tested, and the IC50 was 8.3 nM. CC[C@H](NC(=O)C(C)(C)C)[C@H](Oc1ccc2c(cnn2-c2ccc(F)cc2)c1)c1ccccc1 [Example 96, N-((1R,2S)-1-(1-(4-fluorophenyl)-1H-indazol-5-yloxy)-1-phenylbutan-2-yl)pivalamide] was tested, and the IC50 was 3.5 nM. For C[C@H](NC(=O)Cc1ccccc1)[C@H](Oc1ccc2c(cnn2-c2ccc(F)cc2)c1)c1ccccc1 [Example 33, N-[(1R,2S)-1-[1-(4-fluorophenyl)indazol-5-yl]oxy-1-phenyl-propan-2-yl]-2-phenyl-acetamide], the IC50 was 18 nM. Work on CC(C)n1ncc2cc(O[C@H](c3ccccc3)[C@H](C)NC(=O)C(F)(F)F)ccc21 [Example 129, 2,2,2-Trifluoro-N-[(1R,2S)-1-phenyl-1-(1-propan-2-ylindazol-5-yl)oxy-propan-2-yl]acetamide] yielded an IC50 of 11 nM. For CCC[C@H](NC(=O)C(C)(C)C)[C@H](Oc1ccc2c(cnn2-c2ccc(F)cc2)c1)c1ccccc1 [Example 92, N-((1R,2S)-1-(1-(4-fluorophenyl)-1H-indazol-5-yloxy)-1-phenylpentan-2-yl)pivalamide], the IC50 was 3.8 nM. CC(C)(C)C(=O)NC(C(Oc1ccc2c(cnn2-c2ccc(F)cc2)c1)c1ccccc1)C(F)(F)F (single isomer, unassigned) [Example 147D2E2, N-(1,1,1-trifluoro-3-(1-(4-fluorophenyl)-1H-indazol-5-yloxy)-3-phenylpropan-2-yl)pivalamide] was tested, and the IC50 was 12 nM. Work on COc1ccc([C@@H](Oc2ccc3c(cnn3-c3ccc(F)cc3)c2)[C@H](C)NC(=O)C(C)(C)F)cc1F [Example 246, 2-fluoro-N-[(1R,2S)-1-(3-fluoro-4-methoxy-phenyl)-1-[1-(4-fluorophenyl)indazol-5-yl]oxy-propan-2-yl]-2-methyl-propanamide] yielded an IC50 of 6 nM. In the case of Cc1cc(F)ccc1[C@@H](Oc1ccc2c(cnn2-c2ccc(F)cc2)c1)[C@H](C)NC(=O)C(C)(C)F [Example 248, 2-fluoro-N-[(1R,2S)-1-(4-fluoro-2-methyl-phenyl)-1-[1-(4-fluorophenyl)indazol-5-yl]oxy-propan-2-yl]-2-methyl-propanamide], the IC50 is reported as 4.8 nM. For CCOC(=O)CNC(=O)N[C@@H](C)[C@H](Oc1ccc2c(cnn2-c2ccc(F)cc2)c1)c1ccccc1 [Example 106, Ethyl N-{[(1S,2R)-2-{[1-(4-fluorophenyl)-1H-indazole-5-yl]oxy}-1-methyl-2-phenylethyl]carbamoyl}glycinate], the IC50 was 3.7 nM. Compound COc1ccccc1[C@@H](Oc1ccc2c(cnn2-c2ccc(F)cc2)c1)[C@H](C)NC(=O)C1(C)CC1 [Example 227, N-[(1R,2S)-1-[1-(4-fluorophenyl)indazol-5-yl]oxy-1-(2-methoxyphenyl)propan-2-yl]-1-methyl-cyclopropane-1-carboxamide] has an IC50 of 3.1 nM.
